Read-outs that look alike come from different tables or passages of the source. Marks after values point to notes of the source that are not given here.
Key:
[1] = Pharmacokinetics and metabolite formation in rats; assay type: in vivo, rat; settings: rat, in vivo; for AUC(0-t) / half-life: both sexes, po, 12.5 mg/kg; for AUC0-12 M2, percent change relative to Ulixertinib / AUC0-12 M3, percent change relative to Ulixertinib / AUC0-12 M6, percent change relative to Ulixertinib / AUC0-12 Parent, percent change relative to Ulixertinib / Half-life, percent change relative to Ulixertinib / longer mean half-life than ulixertinib: both
Method: Ulixertinib, Formulas 18A, 19A, and 21A were dosed twice daily (12 hours apart, ±30 minutes) for five consecutive days (10 doses/animal) to rats via oral gavage (PO). Each compound was administered at a dose of 12.5 mg/kg to 6 rats (3 male/3 female, N=6 rats/compound). Each compound was formulated in 1% (w/v) carboxymethylcellulose (CMC) in water at a concentration of 1.25 mg/mL. Following the second (p.m.) dose on Day 5, blood samples were collected from each rat at approximately 0.5, 1, 2, 4, 6, 8, and 12 hours post-dose. Blood samples were centrifuged to obtain plasma. Plasma samples were analyzed for concentrations of the dosed compounds and selected metabolites using an established LC-MS/MS method. The lower limit of quantitation of each compound was 1.00 ng/mL. The rat half-life values (determined by non-compartmental analysis using WinNonlin software) for each compound are shown in Table 7, and the areas under curve from time 0 to hour 12 (AUC0-12), calculated using the linear trapezoidal rule, for each dosed compound and selected metabolites are presented in Table 8.

[2] = Half-life determination in human liver microsomes; assay type: in vitro ADME; settings: for half-life at 1 μM: human, NADPH
Method: Human microsomes from a pool of 10 donors was obtained from a commercial source. Microsomes prepared in potassium phosphate buffer were spiked with ulixertinib, Formula 18, Formula 19, and Formula 21 individually in replicates of six at a final concentration of 1 μM. NADPH was used to initiate the experiment; a control of minus NADPH (minus cofactor) was also run in parallel to the human liver microsome stability. After spiking with test article, microsome replicates were placed in a 37° C. incubator with the following time course: 0, 5, 10, 15, 20, 30, 45 and 60 minutes. Samples were extracted with a protein precipitation quench consisting of ice cold acetonitrile containing internal standard (tolbutamide). Samples were analyzed for ulixertinib, Formula 18, Formula 19, and Formula 21. The half-lives of ulixertinib, Formula 18, Formula 19, and Formula 21 were characterized by the […] to determine the elimination rate (ke) and using the formula described below.
[formula] • ke (elimination rate): the slope of ln(percent remaining) vs time (in minutes)

[3] = test system: phospho-ERK1/2 to total ERK1/2 in A375 cells; test: A375 pERK/ERK dose response study (MSD); assay type: cell-based; settings: Homo sapiens, A-375, ratio of phospho-ERK1/2 to total ERK1/2
Method: A375 pERK/ERK Dose Response Study:
Briefly, A375 cells were plated at 30,000 cells/well in 2×96 well plates, allowed to recover overnight, washed and fed fresh media the next day then treated with a dose response of the selected compounds. Following the determined pretreatment time with the compounds at 37° C./5% CO2, the media was aspirated, and cells lysed with cold, complete MESO Scale Discovery (MSD) lysis buffer. pERK and total ERK1/2 levels were measured using MESO Scale Discover Phospho(Thr202/Tyr204; Thr185/Tyr187)/Total ERK1/2 kits. The protocol and all reagents were provided in the kit. All wells were blocked with 150 μl Blocking Solution for one hour. […] of lysis buffer was added per well and incubated overnight at 4° C. Following the overnight incubation, the wells were washed three times with Tris Wash buffer, then […] of 1× Detection Antibody was added per well and incubated at room temperature for one hour with vigorous shaking. All wells were then washed three times with Tris Wash Buffer before 150 μl of 1× Read Buffer was added per well and the plates read using the MSD Sector Imager. Data were calculated as a ratio of phospho-ERK1/2 to total ERK1/2 to allow for normalization of the samples.

[4] = test system: A375 cells; test: A375 proliferation assay (Cell TiterGlo); assay type: cell-based; settings: Homo sapiens, A-375, 72 hours
Method: Mechanism of Action (MOA) Cell Assay—A375 Cell Proliferation, pERK/ERK and pRSK/RSK Analysis:
Briefly, A375 cells were plated at 10,000 cells/well in three 96 well plates. Plates were incubated overnight at 37° C. and allowed to recover. Cells were washed with 150 μL of DPBS and 90 μL of fresh media was added to each well. The cells were then treated with a dose response of the selected compounds. Compounds were diluted from stock concentrations (10 mM in DMSO). Serial dilutions were made in DMSO, yielding 8 total different concentrations per compound. At time of compound addition, the control plate was analyzed using Cell TiterGlo to set baseline for proliferation. Compound treated cells were allowed to grow at 37° C./5% CO2 for 72 hours then analyzed using Cell TiterGlo according to kit protocol.

[5] = test system: pRSK/RSK in A375 cells; test: A375 pRSK/RSK dose response study (ELISA); assay type: cell-based; settings: Homo sapiens, A-375, pRSK and total RSK ELISA
Method: A375 pRSK/RSK Dose Response Study
Briefly, A375 cells were plated at 30,000 cells/well in 2×96 well plates, allowed to recover overnight, washed and fed fresh media the next day then treated with a dose response of the selected compounds. Following the determined pretreatment with the compounds at 37° C./5% CO2 the media was aspirated, and cells lysed with cold, complete MSD lysis buffer. pRSK and total RSK were analyzed using CST/PathScan pRSK and total RSK ELISAS according to the respective kit protocols. All samples were analyzed at 90% of remaining sample in pRSK and 10% of remaining sample in total RSK ELISA, which was performed following kit protocols.

[6] = Steady-state exposure of ulixertinib and metabolites in rat; assay type: in vivo; settings: for % of total Ulixertinib related exposure: day 5, steady state; for AUC at 5 day: in vivo, day 5, non-isotopically enriched ulixertinib and related metabolites, read-out: Steady-State AUC (Mean ± SD)
Excerpt: (§1) The steady state exposure levels of non-isotopically enriched parent ulixertinib and related metabolites in rat (day 5) and human subjects (day 15) is provided in TABLE 1 below: […]

[7] = Steady-state exposure of ulixertinib and metabolites in human subjects; assay type: in vivo; settings: for % of total Ulixertinib related exposure: day 15, steady state; for AUC at 15 day: in vivo, day 15, non-isotopically enriched ulixertinib and related metabolites, read-out: Steady-State AUC (Mean ± SD)
Excerpt: as §1

SMILES	AUC(0-t) [1]	half-life [1]	AUC0-12 M2, percent change relative to Ulixertinib [1]	AUC0-12 M3, percent change relative to Ulixertinib [1]	AUC0-12 M6, percent change relative to Ulixertinib [1]	AUC0-12 Parent, percent change relative to Ulixertinib [1]	Half-life, percent change relative to Ulixertinib [1]	longer mean half-life than ulixertinib [1]	% of total Ulixertinib related exposure [6]	AUC at 5 day [6]	% of total Ulixertinib related exposure [7]	AUC at 15 day [7]	further results
[2H]C(C)(C)Nc1cc(-c2c[nH]c(C(=O)N[C@H](CO)c3cccc(Cl)c3)c2)c(Cl)cn1 [Formula 21, 4-(5-chloro-2-((propan-2-yl-2-d1)amino)pyridin-4-yl)-N-(1-(3-chlorophenyl)-2-hydroxyethyl)-1H-pyrrole-2-carboxamide]													longer half-life than ulixertinib ([2]; Table 5): 30%; half-life at 1 μM ([2]; Rep 1, read-out: Half-life, t½, Rep 1): 1.01 h; half-life at 1 μM ([2]; Rep 2, read-out: Half-life, t½, Rep 2): 1.26 h; half-life at 1 μM ([2]; Rep 3, read-out: Half-life, t½, Rep 3): 1.07 h; half-life at 1 μM ([2]; Rep 4, read-out: Half-life, t½, Rep 4): 1.02 h; half-life at 1 μM ([2]; Rep 5, read-out: Half-life, t½, Rep 5): 0.992 h; half-life at 1 μM ([2]; Rep 6, read-out: Half-life, t½, Rep 6): 1.01 h; half-life at 1 μM ([2]; six replicates, read-out: Half-life, t½, Mean ± SD): 1.06 ± 0.102 h; Half-life, % change relative to ulixertinib ([2]; mean): (+30%); IC50 [3]: 64 nM; IC50 [4]: 310 nM; IC50 [5]: 37 nM
C[C@H](CO)Nc1cc(-c2c[nH]c(C(=O)N[C@H](CO)c3cccc(Cl)c3)c2)c(Cl)cn1 [Formula 34]									8.1%	15900 ± 4700 ng·h/mL	49.9%	39400 ± 12000 ng·h/mL	Formula 34/Ulixertinib steady-state AUC ratio ([6]; day 5): 0.09; Formula 34/Ulixertinib steady-state AUC ratio ([7]; day 15): 1.3
C[C@@H](CO)Nc1cc(-c2c[nH]c(C(=O)N[C@H](CO)c3cccc(Cl)c3)c2)c(Cl)cn1 [Formula 35]									0.6%	1200 ± 200 ng·h/mL	4.3%	3400 ± 2300 ng·h/mL	
C[C@H](Nc1cc(-c2c[nH]c(C(=O)N[C@H](CO)c3cccc(Cl)c3)c2)c(Cl)cn1)C(=O)O [Formula 37]									0.2%	400 ± 200 ng·h/mL	8.2%	6500 ± 5500 ng·h/mL	

Second part, led by results:

AUC(0-t) [1]	half-life [1]	AUC0-12 M2, percent change relative to Ulixertinib [1]	AUC0-12 M3, percent change relative to Ulixertinib [1]	AUC0-12 M6, percent change relative to Ulixertinib [1]	AUC0-12 Parent, percent change relative to Ulixertinib [1]	Half-life, percent change relative to Ulixertinib [1]	longer mean half-life than ulixertinib [1]	% of total Ulixertinib related exposure [6]	AUC at 5 day [6]	% of total Ulixertinib related exposure [7]	AUC at 15 day [7]	SMILES	further results
228000 ng·h/mL	4.18 h	(−4%^a)	(−75%^a)	(+25%^a)	(+32%^a)	(+14%^a)	14%					Cl.[2H]C([2H])([2H])C([2H])(Nc1cc(-c2c[nH]c(C(=O)N[C@H](CO)c3cccc(Cl)c3)c2)c(Cl)cn1)C([2H])([2H])[2H] [Formula 18A]	
199000 ng·h/mL	4 h	(−17%^a)	(−84%^a)	(−35%)	(+15%^a)	(+9%^a)	9%					Cl.[2H]C([2H])([2H])C(Nc1cc(-c2c[nH]c(C(=O)N[C@H](CO)c3cccc(Cl)c3)c2)c(Cl)cn1)C([2H])([2H])[2H] [Formula 19A]	

From patent publication US20250026733A1, “DEUTERATED ANALOGS OF PYROLE INHIBITORS OF ERK, SYNTHESIS THEREOF AND INTERMEDIATES THERETO” (BIOMED VALLEY DISCOVERIES, INC., priority 2022, published 2025)
